Measurements reported in US20230278995A1, “1,3,4-OXADIAZOLE DERIVATIVE COMPOUNDS AS HISTONE DEACETYLASE 6 INHIBITOR, AND THE PHARMACEUTICAL COMPOSITION COMPRISING THE SAME” (CHONG KUN DANG PHARMACEUTICAL CORP., priority 2020, published 2023).

How the values were obtained:
human recombinant HDAC1 = molecular target: T1, human recombinant HDAC1 (Homo sapiens, UniProt Q13547); experiment: HDAC enzyme activity inhibition assay (HDAC Fluorimetric Drug Discovery Kit), HDAC1; type: biochemical; details: human recombinant HDAC1, Fluor de Lys-SIRT1 substrate, 30° C. 60 minutes
T1 construct: purchased Enzo Life Sciences, Inc. BML-SE456
Outline: (§1)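 The preceding reaction ran 60 min at 30 °C with 0.3 μg recombinant human enzyme, HDAC1 or HDAC6 under an identical protocol, and 10 μM Fluor de Lys-SIRT1 substrate, across 5-fold diluted compound.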

human recombinant HDAC6 = molecular target: T2, human recombinant HDAC6 (Homo sapiens, UniProt Q9UBN7); experiment: HDAC enzyme activity inhibition assay (HDAC Fluorimetric Drug Discovery Kit), HDAC6; type: biochemical; details: for HDAC6 selectivity (fold): HDAC1 vs HDAC6; for IC50: human recombinant HDAC6, same protocol as HDAC1
T2 construct: purchased Calbiochem Inc. 382180
T2 sequence (Q9UBN7 1-1215): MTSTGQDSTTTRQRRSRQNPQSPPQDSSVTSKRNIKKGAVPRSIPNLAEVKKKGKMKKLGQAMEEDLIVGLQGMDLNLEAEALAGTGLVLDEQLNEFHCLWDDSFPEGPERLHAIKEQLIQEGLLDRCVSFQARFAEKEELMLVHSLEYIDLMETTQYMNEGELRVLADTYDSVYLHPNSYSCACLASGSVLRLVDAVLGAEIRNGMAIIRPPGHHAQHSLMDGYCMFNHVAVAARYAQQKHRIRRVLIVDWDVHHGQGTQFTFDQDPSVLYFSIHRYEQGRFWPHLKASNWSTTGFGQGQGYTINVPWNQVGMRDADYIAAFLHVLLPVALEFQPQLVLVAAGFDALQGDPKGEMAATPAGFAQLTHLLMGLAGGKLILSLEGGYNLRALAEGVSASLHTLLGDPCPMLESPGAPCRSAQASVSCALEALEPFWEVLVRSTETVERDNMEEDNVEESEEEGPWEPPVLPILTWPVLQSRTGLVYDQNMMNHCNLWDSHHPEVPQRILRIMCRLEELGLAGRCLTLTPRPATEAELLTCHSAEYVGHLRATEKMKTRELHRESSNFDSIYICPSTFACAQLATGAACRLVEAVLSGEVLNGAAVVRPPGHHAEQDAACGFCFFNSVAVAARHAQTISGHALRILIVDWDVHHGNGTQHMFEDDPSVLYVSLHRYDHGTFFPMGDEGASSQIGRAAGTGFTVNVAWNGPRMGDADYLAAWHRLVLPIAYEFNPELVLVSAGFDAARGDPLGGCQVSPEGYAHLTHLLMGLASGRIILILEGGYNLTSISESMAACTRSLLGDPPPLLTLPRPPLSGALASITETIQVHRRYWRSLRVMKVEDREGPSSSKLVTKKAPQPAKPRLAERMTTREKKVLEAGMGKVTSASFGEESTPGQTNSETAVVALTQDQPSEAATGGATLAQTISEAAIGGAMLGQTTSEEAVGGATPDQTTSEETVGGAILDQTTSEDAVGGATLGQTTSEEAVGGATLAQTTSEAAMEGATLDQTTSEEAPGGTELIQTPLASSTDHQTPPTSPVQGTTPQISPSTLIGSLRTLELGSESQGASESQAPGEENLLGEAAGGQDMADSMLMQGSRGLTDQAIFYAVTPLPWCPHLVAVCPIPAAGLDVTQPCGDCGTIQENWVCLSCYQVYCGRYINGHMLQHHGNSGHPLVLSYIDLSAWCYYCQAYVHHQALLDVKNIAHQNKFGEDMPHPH
Outline: as §1

T1 sequence (Q13547 whole entry): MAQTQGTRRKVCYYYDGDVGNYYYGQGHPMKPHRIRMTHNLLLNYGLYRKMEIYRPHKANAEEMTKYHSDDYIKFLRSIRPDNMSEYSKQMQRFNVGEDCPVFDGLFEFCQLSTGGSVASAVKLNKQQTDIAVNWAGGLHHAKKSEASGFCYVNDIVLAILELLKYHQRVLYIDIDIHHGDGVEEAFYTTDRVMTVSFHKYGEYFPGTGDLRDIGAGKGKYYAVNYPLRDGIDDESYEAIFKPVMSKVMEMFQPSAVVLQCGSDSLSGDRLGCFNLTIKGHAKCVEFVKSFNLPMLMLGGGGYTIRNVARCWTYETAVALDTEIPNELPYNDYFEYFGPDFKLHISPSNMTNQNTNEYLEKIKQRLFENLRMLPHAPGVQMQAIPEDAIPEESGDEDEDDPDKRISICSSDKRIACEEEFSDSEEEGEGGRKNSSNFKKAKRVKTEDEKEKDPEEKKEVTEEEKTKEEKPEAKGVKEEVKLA

SMILES	IC50 (human recombinant HDAC1)	HDAC6 selectivity (fold) (human recombinant HDAC6)	IC50 (human recombinant HDAC6)
CCC(=O)N1CC(F)(C(=O)N(Cc2ccc(-c3nnc(C(F)F)o3)cc2F)c2ccccc2)C1 [Compound 3433, N-(4-(5-(difluoromethyl)-1,3,4-oxadiazol-2-yl)-2-fluorobenzyl)-3-fluoro-N-phenyl-1-propionylazetidine-3-carboxamide]	38500 nM	448 fold	85.9 nM
CC(C)C(=O)N1CC(F)(C(=O)N(Cc2ccc(-c3nnc(C(F)F)o3)cc2F)c2ccccc2)C1 [Compound 3434, N-(4-(5-(difluoromethyl)-1,3,4-oxadiazol-2-yl)-2-fluorobenzyl)-3-fluoro-1-isobutyryl N-phenylazetidine-3-carboxamide]	> 50000 nM	441 fold	113 nM
O=C(N1CC(F)(C(=O)N(Cc2ccc(-c3nnc(C(F)F)o3)cc2F)c2ccccc2)C1)C(F)(F)F [Compound 3435, N-(4-(5-(difluoromethyl)-1,3,4-oxadiazol-2-yl)-2-fluorobenzyl)-3-fluoro-N-phenyl-1-(2,2,2-trifluoroacetyl)azetidine-3-carboxamide]	> 50000 nM	325 fold	154 nM
CS(=O)(=O)N1CC(F)(C(=O)N(Cc2ccc(-c3nnc(C(F)F)o3)cc2F)c2ccccc2)C1 [Compound 3436, N-(4-(5-(difluoromethyl)-1,3,4-oxadiazol-2-yl)-2-fluorobenzyl)-3-fluoro-1-(methylsulfonyl)-N-phenylazetidine-3-carboxamide]	> 50000 nM	378 fold	132 nM
CC(C)N1CCC(F)(C(=O)N(Cc2ccc(-c3nnc(C(F)F)o3)cc2F)c2ccccc2)CC1 [Compound 3437, N-(4-(5-(difluoromethyl)-1,3,4-oxadiazol-2-yl)-2-fluorobenzyl)-4-fluoro-1-isopropyl-N-phenylpiperidine-4-carboxamide]	> 50000 nM	226 fold	221 nM
CC(=O)N1CCC(F)(C(=O)N(Cc2ccc(-c3nnc(C(F)F)o3)cc2F)c2ccccc2)CC1 [Compound 3438, 1-acetyl-N-(4-(5-(difluoromethyl)-1,3,4-oxadiazol-2-yl)-2-fluorobenzyl)-4-fluoro-N-phenylpiperidine-4-carboxamide]	> 50000 nM	302 fold	166 nM
CCC(=O)N1CCC(F)(C(=O)N(Cc2ccc(-c3nnc(C(F)F)o3)cc2F)c2ccccc2)CC1 [Compound 3439, N-(4-(5-(difluoromethyl)-1,3,4-oxadiazol-2-yl)-2-fluorobenzyl)-4-fluoro-N-phenyl-1-propionylpiperidine-4-carboxamide]	> 50000 nM	238 fold	210 nM
CC(C)C(=O)N1CCC(F)(C(=O)N(Cc2ccc(-c3nnc(C(F)F)o3)cc2F)c2ccccc2)CC1 [Compound 3440, N-(4-(5-(difluoromethyl)-1,3,4-oxadiazol-2-yl)-2-fluorobenzyl)-4-fluoro-1-isobutyryl N-phenylpiperidine-4-carboxamide]	> 50000 nM	178 fold	280 nM
CS(=O)(=O)N1CCC(F)(C(=O)N(Cc2ccc(-c3nnc(C(F)F)o3)cc2F)c2ccccc2)CC1 [Compound 3442, N-(4-(5-(difluoromethyl)-1,3,4-oxadiazol-2-yl)-2-fluorobenzyl)-4-fluoro-1-(methylsulfonyl)-N-phenylpiperidine-4-carboxamide]	> 50000 nM	154 fold	324 nM
CCN1CCC(F)(C(=O)N(Cc2ccc(-c3nnc(C(F)F)o3)cn2)c2cccc(F)c2)CC1 [Compound 3443, N-((5-(5-(difluoromethyl)-1,3,4-oxadiazol-2-yl)pyridin-2-yl)methyl)-1-ethyl-4-fluoro N-(3-fluorophenyl)piperidine-4-carboxamide]	> 50000 nM	967 fold	51.7 nM
CC(C)(C)OC(=O)N1CC(F)(C(=O)N(Cc2ccc(-c3nnc(C(F)(F)F)o3)cn2)c2cccc(F)c2)C1 [Compound 6890, tert-butyl 3-fluoro-3-((3-fluorophenyl)((5-(5-(trifluoromethyl)-1,3,4-oxadiazol-2-yl)pyridin-2-yl)methyl)carbamoyl)azetidine-1-carboxylate]	> 50000 nM	57 fold	877 nM
CN1CC(F)(C(=O)N(Cc2ccc(-c3nnc(C(F)(F)F)o3)cn2)c2cccc(F)c2)C1 [Compound 6891, 3-fluoro-N-(3-fluorophenyl)-1-methyl-N-((5-(5-(trifluoromethyl)-1,3,4-oxadiazol-2-yl)pyridin-2-yl)methyl)azetidine-3-carboxamide]	> 50000 nM	196 fold	254 nM
